Patent US7579371B2, “Methods of using [3.2.0] heterocyclic compounds and analogs thereof” (Nereus Pharmaceuticals, Inc., priority 2004, dated 2009)

What was measured:
[1] = tested on: MM.1R and Doxorubicin-resistant Dox-40 cell lines
[2] = tested on: PC-3 cells; assay: PARP and Pro-Caspase 3 cleavage in PC-3 cells (western blot); format: cell-based, human; settings: 100 nM; 0, 8 or 24 hours
Protocol: Total protein lysates were made and 20 μg of the lysates were then resolved under reducing/denaturing conditions and blotted onto nitrocellulose. The blots were then probed with anti-PARP or anti-caspase 3 antibodies followed by stripping and reprobing with an anti-actin antibody.

C[C@@]12OC(=O)[C@]1([C@@H](O)[C@@H]1C=CCCC1)NC(=O)[C@@H]2CCCl [Formula II-16, Salinosporamide A]
activity against drug resistant multiple myeloma [1]: active against MM.1R and Doxorubicin-resistant Dox-40 cell lines | cleavage of PARP [2]: cleavage of PARP is noticeable at 24 hours
